Series [1] deals with T1, Transcription intermediary factor 1-alpha (Homo sapiens, UniProt O15164).
T1 sequence (O15164 whole entry): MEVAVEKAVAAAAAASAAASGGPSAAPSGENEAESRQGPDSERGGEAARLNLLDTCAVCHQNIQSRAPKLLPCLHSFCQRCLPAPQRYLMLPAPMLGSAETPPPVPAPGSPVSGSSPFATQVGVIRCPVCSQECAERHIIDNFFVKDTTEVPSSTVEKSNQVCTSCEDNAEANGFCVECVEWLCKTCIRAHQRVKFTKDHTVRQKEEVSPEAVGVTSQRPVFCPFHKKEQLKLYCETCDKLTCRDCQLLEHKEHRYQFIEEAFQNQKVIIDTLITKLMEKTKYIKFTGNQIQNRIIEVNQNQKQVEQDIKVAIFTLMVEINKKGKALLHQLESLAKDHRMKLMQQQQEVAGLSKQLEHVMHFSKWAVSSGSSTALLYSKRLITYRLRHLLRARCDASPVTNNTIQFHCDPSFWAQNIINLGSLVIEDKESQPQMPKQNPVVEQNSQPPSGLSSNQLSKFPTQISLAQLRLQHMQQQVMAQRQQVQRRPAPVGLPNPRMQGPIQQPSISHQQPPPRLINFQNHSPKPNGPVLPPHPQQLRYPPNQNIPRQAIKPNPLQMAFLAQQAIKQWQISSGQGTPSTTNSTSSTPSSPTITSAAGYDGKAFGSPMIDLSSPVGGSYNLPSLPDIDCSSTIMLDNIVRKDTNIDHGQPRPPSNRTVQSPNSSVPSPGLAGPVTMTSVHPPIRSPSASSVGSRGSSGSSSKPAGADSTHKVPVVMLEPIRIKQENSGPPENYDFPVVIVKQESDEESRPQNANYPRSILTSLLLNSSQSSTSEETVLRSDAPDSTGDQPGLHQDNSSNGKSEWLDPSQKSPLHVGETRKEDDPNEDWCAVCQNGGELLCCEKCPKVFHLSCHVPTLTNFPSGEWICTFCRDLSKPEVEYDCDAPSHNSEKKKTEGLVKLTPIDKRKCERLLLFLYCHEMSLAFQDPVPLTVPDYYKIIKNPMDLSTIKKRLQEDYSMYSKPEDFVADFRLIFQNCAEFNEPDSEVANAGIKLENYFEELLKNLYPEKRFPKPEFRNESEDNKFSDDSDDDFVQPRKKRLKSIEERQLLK
Put plainly: Inhibition of recombinant human His-tagged TRIM24-PHD/bromodomain expressed in Escherichia coli strains BL21 (DE3) cells using biotinylated H3K23ac (1 to 33 residues) peptide after 1 hr by AlphaScreen assay. In general terms: In Alpha technology, singlet oxygen from a donor bead excites a nearby acceptor bead.

Series [2] deals with T1, Transcription intermediary factor 1-alpha. Put plainly: Inhibition of Flag-tagged TRIM24-PHD/bromodomain (unknown origin) expressed in human HeLa cells for 2 hrs by AlphaLisa assay. Type of series: cell-based.
Series [3] is described as follows: Kinetic solubility of compound in phosphate buffer at pH 7.
The nature of series [4]: Clearance in CD1 mouse at 1 mg/kg, iv. The following applies: in vivo. The format is ADME, organism-based.
A short description of series [5]: Terminal half life in CD1 mouse at 1 mg/kg, iv. The following applies: in vivo, read-out: beta t1/2 (converted). Type of series: ADME, organism-based.
A short description of series [6]: Oral bioavailability in CD1 mouse at 10 mg/kg. Type of series: ADME, organism-based. The following applies: in vivo.
The nature of series [7]: Apparent permeability from apical to basolateral side in human Caco2 cells. The following applies: Caco-2.

≈ marks a conversion by molar mass, not a printed value. Where only a bound is given, the exact number is not on record here.

In the case of `CC(C)COc1cccc(Oc2cc3c(cc2NS(=O)(=O)C2CC2)n(C)c(=O)n3C)c1`, in series [1], the half-maximal inhibitory concentration (IC50) was found to be 0.11 µM. Further, in series [2], it took 5 µM to reach a half-maximal effect (EC50). The kinetic solubility in series [3] came out at 0.78 µM (≈ 0.348 µg/mL). Consider `CCCOc1cc(OCCCCCCO)cc(Oc2cc3c(cc2NS(=O)(=O)c2cn(C)cn2)n(C)c(=O)n3C)c1`, for which, in series [1], the half-maximal inhibitory concentration (IC50) turned out to be 0.06 µM. In series [2], this compound returned an EC50 of 1.8 µM. As for `CCCOc1cc(OCCCCN)cc(Oc2cc3c(cc2NS(=O)(=O)c2cn(C)cn2)n(C)c(=O)n3C)c1`, the concentration for half-maximal inhibition (IC50) in series [1] amounted to 0.0079 µM. The compound further had a 50% effective concentration (EC50) in series [2] of 0.12 µM. For the compound `CCCOc1cc(OCCCN)cc(Oc2cc3c(cc2NS(=O)(=O)c2ccc(OC)c(OC)c2)n(C)c(=O)n3C)c1`, the IC50 in series [1] came to 0.013 µM. The compound also registered an EC50 in series [2] of 0.12 µM. On to `CSc1ccc(S(=O)(=O)Nc2ccc3c(c2)N(C)C(=O)CC3)cc1`, for which the IC50 in series [1] is 14 µM. Take `COc1ccc(S(=O)(=O)Nc2ccc3c(c2)CCC(=O)N3C)c(OC)c1`: in series [1], the half-maximal inhibitory concentration (IC50) was found to be 2.5 µM. For `CC(C)COc1cccc(Oc2ccc3c(c2)n(C)c(=O)n3C)c1`, in series [1], the IC50 turned out to be 2.4 µM. Besides, the EC50 in series [2] was above 36 µM. This compound also returned a kinetic solubility in series [3] of 2.6 µM (≈ 0.849 µg/mL).

As to `CCCOc1cc(OCCCCCCN)cc(Oc2cc3c(cc2NS(=O)(=O)c2ccc(OC)c(OC)c2)n(C)c(=O)n3C)c1`, the IC50 in series [1] turned out to be 0.013 µM. In series [2], the midpoint of the response, the EC50, lay at 0.17 µM. For the compound `CCCOc1cccc(Oc2cc3c(cc2NS(=O)(=O)c2cn(C)c(C)n2)n(C)c(=O)n3C)c1`, the 50% inhibitory concentration (IC50) in series [1] was 0.053 µM. Also, the concentration for a half-maximal effect (EC50) in series [2] was determined as 0.95 µM. Also, in series [3], the kinetic solubility is 62 µM (≈ 30.1 µg/mL).

Take `CCCOc1cc(OCCCCN)cc(Oc2cc3c(cc2NS(=O)(=O)c2ccc(OC)c(OC)c2)n(C)c(=O)n3C)c1`: in series [1], the IC50 was 0.0083 µM. In addition, the midpoint of the response in series [2], the EC50, lay at 0.059 µM. The solubility (kinetic) in series [3] is 42 µM (≈ 25.8 µg/mL). For the compound `CC(C)COc1ccc(S(=O)(=O)Nc2ccc3c(c2)CCC(=O)N3C)cc1`, the IC50 in series [1] turned out to be 3.7 µM. As for `COc1cc2c(cc1NS(=O)(=O)c1cccc(C#N)c1)n(C)c(=O)n2C`, the IC50 in series [1] amounted to 10 µM. For `CCCOc1cc(OCCCCN(C)C)cc(Oc2cc3c(cc2NS(=O)(=O)c2ccc(OC)c(OC)c2)n(C)c(=O)n3C)c1`, the clearance in series [4] stood at 2.58 L/h/kg. For the same compound, the half-life in series [5] is 42 min. The same compound gave a bioavailability in series [6] of 29%. The compound further gave a solubility (kinetic) in series [3] of 76 µM (≈ 48.9 µg/mL). As to `CN1C(=O)CCc2cc(NS(=O)(=O)c3ccc(C4CCCCC4)cc3)ccc21`, the IC50 in series [1] came out at 2.8 µM.

For the compound `CSc1ccc(S(=O)(=O)Nc2ccc3c(c2)n(C)c(=O)n3C)cc1`, the half-inhibitory concentration (IC50) in series [1] was 4.9 µM. For the compound `CCOc1cccc(Oc2cc3c(cc2NS(=O)(=O)c2cn(C)c(C)n2)n(C)c(=O)n3C)c1`, the IC50 in series [1] was determined as 0.18 µM. Moreover, in series [2], the response was half-maximal at 2.3 µM (EC50). The compound further registered a solubility (kinetic) in series [3] of 74 µM (≈ 34.9 µg/mL). For `Cc1nc(-c2ccc3c(c2)CC(=O)N3C)cs1`, in series [1], the half-inhibitory concentration (IC50) was determined as 8.5 µM. On to `CCCOc1cc(OCCCCCCNC(=O)OC(C)(C)C)cc(Oc2cc3c(cc2NS(=O)(=O)c2cn(C)cn2)n(C)c(=O)n3C)c1`, for which, in series [1], the IC50 stood at 0.16 µM. In series [2], this compound registered an EC50 of 5.5 µM. In the case of `CCCOc1cc(OCCCCCCN)cc(Oc2cc3c(cc2NS(=O)(=O)c2cn(C)cn2)n(C)c(=O)n3C)c1`, the half-maximal inhibitory concentration (IC50) in series [1] amounted to 0.01 µM. The EC50 in series [2] came to 0.17 µM. Take `Cc1nc(S(=O)(=O)Nc2cc3c(cc2Oc2cccc(OCC(C)C)c2)n(C)c(=O)n3C)cn1C`: the 50% inhibitory concentration (IC50) in series [1] turned out to be 0.057 µM. Besides, the solubility (kinetic) in series [3] worked out at 87 µM (≈ 43.5 µg/mL).

Take `COc1ccc(S(=O)(=O)Nc2ccc3c(c2)n(C)c(=O)n3C)cc1`: the half-maximal inhibitory concentration (IC50) in series [1] stood at 9.3 µM. As to `Cn1cnc(S(=O)(=O)Nc2cc3c(cc2Oc2ccc(OCc4ccccc4)cc2)n(C)c(=O)n3C)c1`, the half-inhibitory concentration (IC50) in series [1] was 2 µM. Moreover, the concentration giving a half-maximal response (EC50) in series [2] was above 33 µM. `Cn1c(=O)n(C)c2cc(NS(=O)(=O)c3ccc(C4CCCCC4)cc3)ccc21`: the half-maximal inhibitory concentration (IC50) in series [1] stood at 1.7 µM.

Turning to `COc1cc2c(cc1NS(=O)(=O)c1ccccc1)CCC(=O)N2C`, the concentration for half-maximal inhibition (IC50) in series [1] is 36 µM.

As for `COCCCOc1cccc(Oc2cc3c(cc2NS(=O)(=O)c2cn(C)c(C)n2)n(C)c(=O)n3C)c1`, the IC50 in series [1] came to 0.13 µM. Further, the EC50 in series [2] stood at 2.7 µM. Besides, the kinetic solubility in series [3] is 100 µM (≈ 51.6 µg/mL). Consider `Cn1cnc(S(=O)(=O)Nc2cc3c(cc2Oc2cccc(OCC4CCOC4)c2)n(C)c(=O)n3C)c1` (configuration not stated), for which the IC50 in series [1] was 0.1 µM. Moreover, a half-maximal effect in series [2] (EC50) was put at 1.9 µM. The compound further displayed a kinetic solubility in series [3] of 77 µM (≈ 39.5 µg/mL). On to `COc1ccc(Oc2cc3c(cc2NS(=O)(=O)c2ccccc2)n(C)c(=O)n3C)cc1`, for which, in series [1], the IC50 came to 1.5 µM. In the case of `CSc1ccc(S(=O)(=O)Nc2ccc3c(c2)CCC(=O)N3C)cc1`, in series [1], the IC50 turned out to be 4.8 µM.

As to `Cc1nc(S(=O)(=O)Nc2cc3c(cc2Oc2cccc(OCc4ccccc4)c2)n(C)c(=O)n3C)cn1C`, the 50% inhibitory concentration (IC50) in series [1] stood at 0.27 µM. Further, in series [2], the response was half-maximal at 4.9 µM (EC50). With `CCCOc1cc(OCCCCCN)cc(Oc2cc3c(cc2NS(=O)(=O)c2cn(C)cn2)n(C)c(=O)n3C)c1`, the IC50 in series [1] worked out at 0.011 µM. In series [2], this compound yielded a concentration for a half-maximal effect (EC50) of 0.11 µM.

Regarding `CCCOc1cccc(Oc2cc3c(cc2NS(=O)(=O)c2ccc(OC)c(OC)c2)n(C)c(=O)n3C)c1`, in series [1], the IC50 is 0.043 µM. The compound also came in with a concentration giving a half-maximal response (EC50) in series [2] of 0.83 µM. Moreover, the kinetic solubility in series [3] is 1.1 µM (≈ 0.58 µg/mL). For `CSc1ccc(S(=O)(=O)Nc2ccc3c(c2)CC(=O)N3C)cc1`, the IC50 in series [1] amounted to 17 µM.

As for `CCCCOc1cccc(Oc2cc3c(cc2NS(=O)(=O)c2cn(C)c(C)n2)n(C)c(=O)n3C)c1`, the IC50 in series [1] is 0.16 µM. Further, in series [2], the concentration for a half-maximal effect (EC50) stood at 3 µM. Regarding `COc1ccc(S(=O)(=O)Nc2cc3c(cc2Oc2cccc(OCCCCN(C)C)c2)n(C)c(=O)n3C)cc1OC`, the concentration for half-maximal inhibition (IC50) in series [1] came out at 0.27 µM. In addition, the midpoint of the response in series [2], the EC50, lay at 3.2 µM. Further, the solubility (kinetic) in series [3] was 66 µM (≈ 38.6 µg/mL). Consider `Cn1c(=O)n(C)c2cc(NS(=O)(=O)c3ccccc3)ccc21`, for which, in series [1], the concentration for half-maximal inhibition (IC50) amounted to 23 µM.

Turning to `COc1ccc(S(=O)(=O)Nc2cc3c(cc2Oc2cccc(OCc4ccccc4)c2)n(C)c(=O)n3C)cc1OC`, the IC50 in series [1] was 0.14 µM. This compound registered a 50% effective concentration (EC50) in series [2] of 3.9 µM. The solubility (kinetic) in series [3] turned out to be 0.6 µM (≈ 0.345 µg/mL). Besides, in series [7], the apparent permeability from apical to basolateral (Papp A→B) was 210 nm/s. As to `CC(C)COc1ccc(S(=O)(=O)Nc2ccc3c(c2)n(C)c(=O)n3C)cc1`, the half-inhibitory concentration (IC50) in series [1] turned out to be 4 µM.

As usually defined, the IC50 is the concentration that inhibits the measured activity by half. For orientation: EC50 means the concentration needed to bring the measured effect to its halfway point. Lower therefore signals a more potent agent. The kinetic solubility is solubility judged after dilution from a stock solution rather than from solid. In general, clearance refers to the volume of plasma or blood freed of the substance per unit of time. A low value points to a low capacity for elimination. As usually defined, the bioavailability is dose-corrected exposure relative to a reference, in per cent. A word on the Papp A→B: it is the apparent permeability from the apical to the basolateral side of a cell layer.

The record behind these values is ChEMBL document CHEMBL3774340, “Structure-Guided Design of IACS-9571, a Selective High-Affinity Dual TRIM24-BRPF1 Bromodomain Inhibitor” (J Med Chem, 2016).
